Measured values taken from patent US20090136460A1 (VANDERBILT UNIVERSITY, priority 2007, published 2009).
Where two headings read alike, the source gives them in different places.

How the values were obtained:
[1] = test system: A2B adenosine receptor; details: [15] Martin et al. (1993); NECA-stimulated atrium (A1) or aorta (A2A); cited from earlier work
[2] = molecular target: T1, A2A adenosine receptor (Mus musculus, UniProt Q60612); experiment: Potency at mouse receptor, current study, in A2A of Table 1; assay type: cell-based; details: data from the current study (no reference)
T1 construct: from tissue; host or cells: isolated perfused C57Bl/6 mouse heart (my inference)
T1 sequence (Q60612 1-326): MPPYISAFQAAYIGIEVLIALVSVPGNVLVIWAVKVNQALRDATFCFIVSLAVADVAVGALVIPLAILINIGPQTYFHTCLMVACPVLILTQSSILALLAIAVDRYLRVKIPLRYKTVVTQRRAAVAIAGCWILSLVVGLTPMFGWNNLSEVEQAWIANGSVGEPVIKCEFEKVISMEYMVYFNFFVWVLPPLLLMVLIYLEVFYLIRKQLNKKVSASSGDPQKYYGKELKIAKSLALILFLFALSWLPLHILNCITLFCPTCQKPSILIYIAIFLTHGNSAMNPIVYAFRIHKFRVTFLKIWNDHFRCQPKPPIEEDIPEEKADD
From the text: Measurement of cAMP accumulation.

[3] = molecular target: A2A adenosine receptor (Cavia porcellus, UniProt P46616); details: [15] Martin et al. (1993); NECA-stimulated atrium (A1) or aorta (A2A); cited from earlier work
[4] = molecular target: T2, A1 receptors (Mus musculus, UniProt Q60612); experiment: Inhibition of forskolin-stimulated cAMP accumulation in mouse eEPCs; details: read-out: EC50, antagonism of the action of CPA on forskolin-stimulated cAMP accumulation; eEPCs; 10 nmol/L CPA; 1 μmol/L forskolin
T2 sequence (Q60612 1-326): T1 sequence (Q60612 1-326)

[5] = molecular target: T3, A2B receptors (Mus musculus, UniProt Q60614); experiment: NECA-stimulated cAMP accumulation in MCEC-1 cells; details: data from the current study (no reference); for Affinity or potency (Ki, KD, KB, IC50 or EC50) at A2B, mouse (m), current study: 95% CI in parentheses
T3 sequence (Q60614 1-332): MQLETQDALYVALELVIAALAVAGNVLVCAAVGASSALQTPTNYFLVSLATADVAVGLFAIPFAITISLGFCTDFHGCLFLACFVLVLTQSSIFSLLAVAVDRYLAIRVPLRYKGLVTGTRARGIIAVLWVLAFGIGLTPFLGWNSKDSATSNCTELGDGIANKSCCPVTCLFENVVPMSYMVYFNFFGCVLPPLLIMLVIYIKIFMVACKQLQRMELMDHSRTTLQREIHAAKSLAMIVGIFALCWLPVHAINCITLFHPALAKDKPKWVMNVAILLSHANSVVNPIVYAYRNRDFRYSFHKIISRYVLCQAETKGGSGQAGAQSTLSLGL

[6] = test system: eEPC adhesion to MCEC-1 cells; experiment: eEPC adhesion to MCEC-1 cells under static conditions; assay type: cell-based, mouse; details: for IC50: read-out: IC50, inhibition of NECA-induced eEPC adhesion
[7] = test system: HMVEC-c cells; experiment: cAMP accumulation in HMVEC-c cells; assay type: cell-based, human
From the text: Primary cultures of human cardiac microvascular endothelial cells (HMVEC-c) were obtained from Cambrex (Walkersville, Md.), and cultured using EGM™-2 MV growth medium (Cambrex). HMVEC-c from passages 2 to 5 were used. Measurement of cAMP accumulation.

[8] = test system: eEPCs; experiment: cAMP accumulation in mouse eEPCs (forskolin, NECA); details: FIG. 1B
[9] = test system: eEPC adhesion to MCEC-1 cells; experiment: eEPC adhesion to MCEC-1 cells under flow conditions; assay type: cell-based, mouse; details: 10 μmol/L; shear stress 0.75 and 1 dyne/cm^2; 10 minutes
Protocol: Analysis of cell adhesion under flow conditions. Adhesion assays under flow conditions were performed using a parallel plate flow chamber (Glycotech, Rockville, Md.) following the manufacturer's instructions. Cell suspension or cell-free medium were drown into chambers by a syringe pump (Model 44, Harvard Apparatus, Inc., Holliston, Mass.) at a constant rate to generate a desired wall shear stress (τ, dynes/cm2) using the formula τ=6Qμ/a^2b, where Q is flow rate, μ is medium viscosity, b is channel width, and a is channel height. […] Cell adhesion was determined by analysis of digitized video recordings using NIH Image software. Cell-based P-selectin enzyme-linked immunoassay To analyze cell-surface P-selectin expression, the inventors used a previously published method (Cleator et al., 2005). […] After washing and blocking, cells were incubated with 5 μg/mL rat anti-mouse CD62P antibodies (Fitzgerald Industries) or rat isotype-matched control antibody (BD Biosciences) for 1 hour. After washing, a secondary goat anti-rat horseradish peroxidase-conjugated antibody (Jackson ImmunoResearch, West Grove, Pa.) was added for 1 hour followed by washing and then analyzed at […] after addition of substrate.

[10] = test system: CE-EPC adhesion to HMVEC-c cells; experiment: Adhesion of human culture-expanded EPCs (CE-EPCs) to HMVEC-c cells; details: increasing concentrations
[11] = molecular target: T4, A2B adenosine receptor (Homo sapiens, UniProt P29275); details: [11] Feoktistov and Biaggioni (1998); NECA-stimulated HEL cells; cited from earlier work
T4 sequence (P29275 1-332): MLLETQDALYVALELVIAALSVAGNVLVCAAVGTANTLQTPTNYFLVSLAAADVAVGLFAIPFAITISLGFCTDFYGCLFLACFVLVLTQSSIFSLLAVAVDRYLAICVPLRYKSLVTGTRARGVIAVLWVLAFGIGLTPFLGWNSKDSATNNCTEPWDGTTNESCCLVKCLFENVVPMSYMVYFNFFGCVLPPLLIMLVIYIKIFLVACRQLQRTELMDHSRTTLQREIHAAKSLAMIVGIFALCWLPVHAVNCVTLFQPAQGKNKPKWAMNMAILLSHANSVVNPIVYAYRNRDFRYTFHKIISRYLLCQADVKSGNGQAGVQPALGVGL

[12] = molecular target: A2A adenosine receptor (Mus musculus, UniProt Q60613); details: [13] Lopes et al. (2004), striatum, radioligand [3H]SCH58261, cited from earlier work
[13] = molecular target: A2A adenosine receptor (Rattus norvegicus, UniProt P30543); details: cited from earlier work
Sequence of A2A adenosine receptor (Rattus norvegicus, UniProt P30543) (P30543 whole entry): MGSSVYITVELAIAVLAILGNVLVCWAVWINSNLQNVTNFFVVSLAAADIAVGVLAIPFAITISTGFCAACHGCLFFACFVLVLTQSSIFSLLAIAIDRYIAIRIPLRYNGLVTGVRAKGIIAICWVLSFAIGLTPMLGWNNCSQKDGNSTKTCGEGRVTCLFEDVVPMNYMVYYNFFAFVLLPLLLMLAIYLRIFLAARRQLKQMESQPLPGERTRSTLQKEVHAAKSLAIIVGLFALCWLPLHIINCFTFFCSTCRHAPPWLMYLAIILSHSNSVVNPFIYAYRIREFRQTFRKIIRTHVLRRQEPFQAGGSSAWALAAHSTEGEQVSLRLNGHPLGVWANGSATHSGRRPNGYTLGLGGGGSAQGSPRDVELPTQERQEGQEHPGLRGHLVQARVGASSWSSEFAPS

Sequence of A2A adenosine receptor (Cavia porcellus, UniProt P46616) (P46616 whole entry): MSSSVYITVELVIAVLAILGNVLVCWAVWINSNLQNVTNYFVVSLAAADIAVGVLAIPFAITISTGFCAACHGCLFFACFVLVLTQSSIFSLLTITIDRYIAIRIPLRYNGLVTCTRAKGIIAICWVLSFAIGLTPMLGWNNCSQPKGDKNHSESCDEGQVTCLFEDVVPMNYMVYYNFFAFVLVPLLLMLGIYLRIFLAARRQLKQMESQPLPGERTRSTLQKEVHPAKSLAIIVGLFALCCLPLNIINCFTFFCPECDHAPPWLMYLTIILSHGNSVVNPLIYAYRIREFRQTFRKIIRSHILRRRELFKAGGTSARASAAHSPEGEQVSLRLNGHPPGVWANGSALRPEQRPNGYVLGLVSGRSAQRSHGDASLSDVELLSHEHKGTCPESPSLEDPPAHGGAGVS
Sequence of A2A adenosine receptor (Mus musculus, UniProt Q60613) (Q60613 whole entry): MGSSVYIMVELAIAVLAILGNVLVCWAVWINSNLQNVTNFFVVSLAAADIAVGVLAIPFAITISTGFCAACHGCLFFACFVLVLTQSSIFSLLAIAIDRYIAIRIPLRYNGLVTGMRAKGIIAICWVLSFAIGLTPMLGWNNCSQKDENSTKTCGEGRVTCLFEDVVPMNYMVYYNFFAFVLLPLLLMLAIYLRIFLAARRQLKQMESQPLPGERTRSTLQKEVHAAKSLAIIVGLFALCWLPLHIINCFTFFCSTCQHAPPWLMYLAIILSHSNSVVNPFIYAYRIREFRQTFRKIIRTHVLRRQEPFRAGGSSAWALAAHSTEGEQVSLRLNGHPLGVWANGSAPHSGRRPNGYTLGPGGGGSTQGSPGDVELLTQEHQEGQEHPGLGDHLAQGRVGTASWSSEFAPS

Cn1cnc2c(NC3CC4CCC3C4)ncnc21 (stereo not shown) [N-0861]
Affinity or potency at A2B, guinea pig (gp) [1]: gp 56,200 nmol/L | Affinity or potency at A2B, guinea pig (gp), log [1]: (±11,400), −4.3 [15] log mol/L | Affinity or potency at A2A, mouse (m), current study, log [2]: −6.3 log mol/L | Affinity or potency at A2A, guinea pig (gp) [3]: 575 (±86) nmol/L | Affinity or potency at A2A, guinea pig (gp), log [3]: 6.2 log mol/L | EC50 [4]: 511 nM | Affinity or potency at A2B, mouse (m), current study, log [5]: 65,610); −4.4 log mol/L | Affinity or potency (Ki, KD, KB, IC50 or EC50) at A2B, mouse (m), current study [5]: m 39,350 (23,600- nmol/L | IC50 ([6]; 1 μmol/L NECA): 1500 nM

CCNC(=O)[C@H]1O[C@@H](n2cnc3c(N)ncnc32)[C@H](O)[C@@H]1O [NECA, 5′-N-ethylcarboxamidoadenosine]
Stimulation of cAMP accumulation [7]: 5.1±0.1 fold | Effect on cAMP in eEPCs [8]: did not elevate cAMP | Effect on eEPC adhesion under laminar flow [9]: significantly increased | Effect on CE-EPC adhesion to HMVEC-c cells [10]: stimulated CE-EPC adhesion | Time of half-maximal effect on eEPC adhesion ([6]; 1 μmol/L NECA): 5 min | EC50 ([6]; Mus musculus, 0.5 h, 30 minutes, read-out: EC50, increase of eEPC adhesion): 139 nM | eEPC adhesion ([6]; maximal, concentration-dependent, 30 minutes, basal 4.5±0.3%): 21.3±1.4%

Nc1nc2c(cnn2CCc2ccccc2)c2nc(-c3ccco3)nn12 [SCH58261, 5-amino-7-(phenylethyl)-2-(2-furyl)-pyrazolo-[4,3-e]-1,2,4-triazolo-[1,5-c]-pyrimidine]
Affinity or potency at A2B, human (h) [11]: > 100 nM | Affinity or potency at A2B, human (h), log [11]: > −5 log mol/L | Affinity or potency at A2A, mouse (m), log [12]: −9.0 log mol/L | Ki ([12]; read-out: Affinity or potency at A2A, mouse (m)): 1 nM | Affinity or potency at A2B, mouse (m), current study, log [5]: 2,486); −5.7 log mol/L | Affinity or potency (Ki, KD, KB, IC50 or EC50) at A2B, mouse (m), current study [5]: m 1,868 (1,404- nmol/L | Affinity or potency at A2A, rat (r), log [13]: r 2.3 (2-2.7); −8.6 [12] log mol/L | IC50 ([6]; Mus musculus): 1700 nM | Effect on NECA-induced eEPC adhesion at lower concentrations ([6]; concentrations that selectively block A2A receptors, 1 μmol/L NECA): no effect
